Assays:
[1] = molecular target: Human immunodeficiency virus type 1 reverse transcriptase (Human immunodeficiency virus 1, UniProt Q72547); experiment: Inhibition of recombinant wild type HIV1 reverse transcriptase p66/p51 using poly (rA)/anoligo (dT)16 as template/primer assessed as inhibition of biotin-dUTP incorporation after 40 mins by Pico-Green staining based fluorescence assay
[2] = test system: Human immunodeficiency virus 2; experiment: Antiviral activity against HIV2 ROD infected in human MT4 cells assessed as reduction of virus-induced cytopathic effect after 4 days by MTT assay; format: functional, organism-based; conditions: Human immunodeficiency virus 2, ISOLATE ROD, MT4, 96 h
[3] = test system: Human immunodeficiency virus 1; experiment: Antiviral activity against wild type HIV1 3B infected in human MT4 cells assessed as reduction of virus-induced cytopathic effect after 4 days by MTT assay; format: functional, organism-based; conditions: Human immunodeficiency virus 1, 3B, MT4, 96 h
[4] = Cytotoxicity against human MT4 cells assessed as reduction in cell viability after 4 days by MTT assay; format: cell-based
[5] = Selectivity index, ratio of CC50 for human MT4 cells to EC50 for wild type HIV1 3B; format: toxicity; conditions: read-out: Ratio CC50/EC50
[6] = test system: Human immunodeficiency virus 1; experiment: Antiviral activity against HIV1 harboring reverse transcriptase K103N mutant infected in human MT4 cells assessed as reduction of virus-induced cytopathic effect after 4 days by MTT assay; format: functional, organism-based; conditions: Human immunodeficiency virus 1, MT4, 96 h
[7] = test system: Human immunodeficiency virus 1; experiment: Antiviral activity against HIV1 harboring reverse transcriptase F227L/V106A double mutant infected in human MT4 cells assessed as reduction of virus-induced cytopathic effect after 4 days by MTT assay; format: functional, organism-based; conditions: Human immunodeficiency virus 1, MT4, 96 h
[8] = test system: Human immunodeficiency virus 1; experiment: Antiviral activity against HIV1 harboring reverse transcriptase L100I mutant infected in human MT4 cells assessed as reduction of virus-induced cytopathic effect after 4 days by MTT assay; format: functional, organism-based; conditions: Human immunodeficiency virus 1, MT4, 96 h
[9] = test system: Human immunodeficiency virus 1; experiment: Antiviral activity against HIV1 harboring reverse transcriptase Y188L mutant infected in human MT4 cells assessed as reduction of virus-induced cytopathic effect after 4 days by MTT assay; format: functional, organism-based; conditions: Human immunodeficiency virus 1, MT4, 96 h
[10] = test system: Human immunodeficiency virus 1; experiment: Antiviral activity against HIV1 RES056 harboring reverse transcriptase K103 N/Y181C double mutant infected in human MT4 cells assessed as reduction of virus-induced cytopathic effect after 4 days by MTT assay; format: functional, organism-based; conditions: Human immunodeficiency virus 1, RES056, MT4, 96 h
[11] = test system: Human immunodeficiency virus 1; experiment: Antiviral activity against HIV1 harboring reverse transcriptase Y181C mutant infected in human MT4 cells assessed as reduction of virus-induced cytopathic effect after 4 days by MTT assay; format: functional, organism-based; conditions: Human immunodeficiency virus 1, MT4, 96 h
[12] = test system: Human immunodeficiency virus 1; experiment: Antiviral activity against HIV1 harboring reverse transcriptase E138K mutant infected in human MT4 cells assessed as reduction of virus-induced cytopathic effect after 4 days by MTT assay; format: functional, organism-based; conditions: Human immunodeficiency virus 1, MT4, 96 h
[13] = test system: Human immunodeficiency virus 1; experiment: Potency index, ratio of nevirapine EC50 to test compound EC50 for wild type HIV1 3B infected in human MT4 cells; format: functional

SMILES | IC50 [1] [nM] | EC50 [2] [nM] | EC50 [3] [nM] | CC50 at 96 h [4] [nM] | selectivity ratio [5] | EC50 [6] [nM] | EC50 [7] [nM] | EC50 [8] [nM] | EC50 [9] [nM] | EC50 [10] [nM] | EC50 [11] [nM] | EC50 [12] [nM] | Ratio EC50 [13]
Cc1cc(C)cc(-c2cc(C)c(Nc3ccnc(Nc4ccc(C#N)cc4)n3)c(C)c2)c1 | 116 | > 4140 | 23 | 4140 | 177 |  |  |  |  |  |  |  | 
Cc1cc(-c2ccc(C#N)cc2)cc(C)c1Nc1ccnc(Nc2ccc(C#N)cc2)n1 | 14 | > 2080 | 1 |  | 2060 | 0.84 | ≥ 110 | 1.3 | 11 | 10 | 1.5 | 2 | 
Cc1cc(-c2cccc(C(F)(F)F)c2)cc(C)c1Nc1ccnc(Nc2ccc(C#N)cc2)n1 | 58 | > 4030 | 8.4 | 4030 | 477 |  |  |  |  |  |  |  | 
Cc1cc(C#N)cc(C)c1Oc1nc(Nc2ccc(C#N)cc2)nc(N)c1Br [ETRAVIRINE] |  |  | 1.5 | > 2000 | > 1320 | 1.5 | 7 | 2.7 | 7.9 | 10 | 8.1 | 7.3 | 
Cc1cc(-c2ccccc2F)cc(C)c1Nc1ccnc(Nc2ccc(C#N)cc2)n1 | 9 | > 2120 | 1.4 | 2120 | 1540 | 3.2 | ≥ 390 | 12 | 130 | 230 | 8 | 7.8 | 
Cc1cc(-c2cc(Cl)cc(Cl)c2)cc(C)c1Nc1ccnc(Nc2ccc(C#N)cc2)n1 | 46 | > 4290 | 34 | 4290 | 125 |  |  |  |  |  |  |  | 
O=C1Nc2ccc(Cl)cc2[C@@](C#CC2CC2)(C(F)(F)F)O1 [EFAVIRENZ] |  |  | 0.43 | > 2000 |  | 19 | 50 | 1 | 59 | 40 | 1.5 | 1.6 | 
Cc1cc(-c2ccccc2C(F)(F)F)cc(C)c1Nc1ccnc(Nc2ccc(C#N)cc2)n1 | 46 | > 4210 | 6.9 | 4210 | 606 |  |  |  |  |  |  |  | 
Cc1cc(-c2ccc(F)cc2)cc(C)c1Nc1ccnc(Nc2ccc(C#N)cc2)n1 | 17 | > 3990 | 1.4 | 4170 | 2950 | 2.3 | 320 | 10 | 160 | 190 | 8.3 | 8.1 | 
Cc1ccnc2c1NC(=O)c1cccnc1N2C1CC1 [NEVIRAPINE] |  |  | 24 | > 4000 |  | 1850 | > 4000 | 400 | > 4000 | > 4000 | > 4000 | 58 | 
Cc1cc(-c2cccc(C#N)c2)cc(C)c1Nc1ccnc(Nc2ccc(C#N)cc2)n1 | 11 | > 920 | 1.5 | 920 | 601 | 2.3 | > 920 | 17 | > 920 | 270 | 11 | 8.1 | 
Cc1cn([C@H]2C[C@H](N=[N+]=[N-])[C@@H](CO)O2)c(=O)[nH]c1=O [ZIDOVUDINE] |  |  | 2.1 | > 2000 | > 971 | 1.9 | 1 | 1.3 | 1.6 | 1.5 | 1.7 | 2.2 | 
Cc1cc(-c2cc(F)cc(F)c2)cc(C)c1Nc1ccnc(Nc2ccc(C#N)cc2)n1 | 52 | > 3910 | 33 | 3910 | 120 |  |  |  |  |  |  |  | 

Second part, led by results:

IC50 [1] [nM] | SMILES | EC50 [2] [nM] | EC50 [3] [nM] | CC50 at 96 h [4] [nM] | selectivity ratio [5] | EC50 [6] [nM] | EC50 [7] [nM] | EC50 [8] [nM] | EC50 [9] [nM] | EC50 [10] [nM] | EC50 [11] [nM] | EC50 [12] [nM] | Ratio EC50 [13]
37 | Cc1cc(-c2c(C)cccc2C)cc(C)c1Nc1ccnc(Nc2ccc(C#N)cc2)n1 | > 2590 | 7.1 | 2590 | 364 |  |  |  |  |  |  |  | 
21 | COc1ccccc1-c1cc(C)c(Nc2ccnc(Nc3ccc(C#N)cc3)n2)c(C)c1 | > 940 | 3 | 940 | 316 |  |  |  |  |  |  |  | 
27 | COc1ccc(-c2cc(C)c(Nc3ccnc(Nc4ccc(C#N)cc4)n3)c(C)c2)cc1 | > 2890 | 2.4 | 2890 | 1200 |  |  |  |  |  |  |  | 
12 | Cc1cc(-c2cccc(F)c2)cc(C)c1Nc1ccnc(Nc2ccc(C#N)cc2)n1 | > 4120 | 1.7 | 4120 | 2380 |  |  |  |  |  |  |  | 
19 | Cc1ccc(-c2cc(C)c(Nc3ccnc(Nc4ccc(C#N)cc4)n3)c(C)c2)cc1 | > 5570 | 3.6 | 5570 | 1540 |  |  |  |  |  |  |  | 
16 | Cc1cc(-c2ccccc2)cc(C)c1Nc1ccnc(Nc2ccc(C#N)cc2)n1 | > 4170 | 2.8 | 4170 | 1520 |  |  |  |  |  |  |  | 10
67 | Cc1cc(-c2ccc(C(F)(F)F)cc2)cc(C)c1Nc1ccnc(Nc2ccc(C#N)cc2)n1 | > 4160 | 10 | 4160 | 418 |  |  |  |  |  |  |  | 
30 | Cc1cccc(-c2cc(C)c(Nc3ccnc(Nc4ccc(C#N)cc4)n3)c(C)c2)c1 | > 3670 | 5.9 | 3670 | 622 |  |  |  |  |  |  |  | 
27 | COc1cccc(-c2cc(C)c(Nc3ccnc(Nc4ccc(C#N)cc4)n3)c(C)c2)c1 | > 2990 | 2.9 | 2990 | 1050 |  |  |  |  |  |  |  | 
18 | Cc1ccccc1-c1cc(C)c(Nc2ccnc(Nc3ccc(C#N)cc3)n2)c(C)c1 | > 3820 | 2.4 | 3820 | 1580 |  |  |  |  |  |  |  | 
26 | Cc1cc(-c2ccc(Cl)cc2)cc(C)c1Nc1ccnc(Nc2ccc(C#N)cc2)n1 | > 4190 | 3.7 | 4190 | 1130 |  |  |  |  |  |  |  | 
20 | Cc1cc(-c2ccccc2Cl)cc(C)c1Nc1ccnc(Nc2ccc(C#N)cc2)n1 | > 3990 | 2.6 | 3990 | 1150 |  |  |  |  |  |  |  | 
20 | Cc1cc(-c2cccc(Cl)c2)cc(C)c1Nc1ccnc(Nc2ccc(C#N)cc2)n1 | > 2160 | 5.3 | 2160 | 409 |  |  |  |  |  |  |  | 

Reference: ChEMBL document CHEMBL4145492, “Discovery of biphenyl-substituted diarylpyrimidines as non-nucleoside reverse transcriptase inhibitors with high potency against wild-type and mutant HIV-1” (Eur J Med Chem, 2018)
